According to patent US9056111B1, “Selective efflux inhibitors and related pharmaceutical compositions and methods of treatment” (STC.UNM, priority 2011, dated 2015):
Where “and” joins values, the source holds several entries; their conditions need not be identical. Identical values can stand only once.

Biological target: ABCB1 (Homo sapiens, UniProt P08183)
Assay: JC-1 efflux inhibition dose response, flow cytometry, Jurkat-DNR cells
Outline: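 Jurkat-DNR cells pre-stained with 1 μM JC-1 were incubated with compound (final 50 μM to 69 nM, […]) at 1×10^6 cells/mL, rotated 30 min at 25° C. Retained JC-1 read by flow cytometry (488 nm excitation, 530/40 nm emission). Curves fitted to a four-parameter logistic.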

Sequence of ABCB1 (P08183 whole entry): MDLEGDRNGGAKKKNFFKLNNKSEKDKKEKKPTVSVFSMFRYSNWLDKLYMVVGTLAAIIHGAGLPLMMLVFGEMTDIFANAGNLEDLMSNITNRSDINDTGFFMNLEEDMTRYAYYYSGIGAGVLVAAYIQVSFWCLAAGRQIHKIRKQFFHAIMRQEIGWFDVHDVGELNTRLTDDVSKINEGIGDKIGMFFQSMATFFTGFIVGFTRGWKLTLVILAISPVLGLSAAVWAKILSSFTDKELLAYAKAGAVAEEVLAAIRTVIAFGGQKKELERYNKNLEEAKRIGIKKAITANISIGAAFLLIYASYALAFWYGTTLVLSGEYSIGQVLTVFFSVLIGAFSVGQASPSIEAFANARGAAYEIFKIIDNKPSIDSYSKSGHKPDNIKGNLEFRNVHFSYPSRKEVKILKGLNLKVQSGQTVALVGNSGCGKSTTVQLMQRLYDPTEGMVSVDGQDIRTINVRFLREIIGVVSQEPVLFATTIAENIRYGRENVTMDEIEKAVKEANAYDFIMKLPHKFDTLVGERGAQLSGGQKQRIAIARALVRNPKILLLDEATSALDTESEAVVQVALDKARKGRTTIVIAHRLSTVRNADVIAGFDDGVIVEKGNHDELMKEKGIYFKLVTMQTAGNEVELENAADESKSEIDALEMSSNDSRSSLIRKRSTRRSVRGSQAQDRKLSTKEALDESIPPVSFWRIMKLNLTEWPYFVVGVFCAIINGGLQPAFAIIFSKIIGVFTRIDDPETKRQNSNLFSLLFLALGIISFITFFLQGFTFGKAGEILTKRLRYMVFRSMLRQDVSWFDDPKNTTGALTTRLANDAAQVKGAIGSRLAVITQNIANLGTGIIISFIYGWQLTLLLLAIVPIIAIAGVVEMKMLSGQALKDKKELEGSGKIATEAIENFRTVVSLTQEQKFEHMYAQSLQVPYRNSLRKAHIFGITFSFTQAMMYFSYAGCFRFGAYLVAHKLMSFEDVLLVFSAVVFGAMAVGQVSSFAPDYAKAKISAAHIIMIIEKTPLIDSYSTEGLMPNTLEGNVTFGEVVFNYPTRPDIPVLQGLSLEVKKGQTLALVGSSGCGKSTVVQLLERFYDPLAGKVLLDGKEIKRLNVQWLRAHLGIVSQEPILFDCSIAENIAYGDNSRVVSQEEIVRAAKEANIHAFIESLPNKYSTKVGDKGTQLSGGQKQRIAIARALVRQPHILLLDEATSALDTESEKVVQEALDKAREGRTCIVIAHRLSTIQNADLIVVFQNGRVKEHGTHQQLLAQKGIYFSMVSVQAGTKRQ

O=C(c1ccoc1)N1CCN(c2cc(-c3ccco3)nc3cc(-c4ccccc4)nn23)CC1 [Compound 1, (4-(5-(furan-2-yl)-2-phenylpyrazolo[1,5-a]pyrimidin-7-yl)piperazin-1-yl)(furan-3-yl)methanone]
EC50: 4.65 µM
IC50 (IC50 ABCB1 (efflux inhibition of JC-1 substrate), Jurkat-DNR cells over-expressing ABCB1, averages of two to four replicates): 4.7 µM and 4.65 µM
